Laboratory results published in publication PMC11700832, “Small-molecule MMRi36 induces apoptosis in p53-mutant lymphomas by targeting MDM2/MDM4/XIAP for degradation” (Frontiers in Oncology, 2024).

Molecular target: T1, MDM2 (MDM2-MDM4 RING domain heterodimer) (Homo sapiens, UniProt O15151+Q00987)
T1 construct: RING domain heterodimers of MDM2-MDM4, co-expressed in E. coli; with MDM4 (RING domain)
Experiment: microscale thermophoresis; thermofluor (Tm […] to […] °C); in vitro ubiquitination activation
Assay type: binding

T1 sequence (Q00987 428-491 limits assumed): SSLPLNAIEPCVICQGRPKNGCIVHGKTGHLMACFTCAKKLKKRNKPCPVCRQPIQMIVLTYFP
T1 sequence (O15151 428-490 limits assumed): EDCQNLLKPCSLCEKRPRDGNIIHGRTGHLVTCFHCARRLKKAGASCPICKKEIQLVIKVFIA

Kd: ~308 nM
SMILES: O=C1Nc2ccc(Br)cc2C12NN=C(c1ccccc1)S2 (stereo not shown) [MMRi36]
